Results as given in patent US20250346592A1 (Celgene Corporation, priority 2022, published 2025).

Legend:
hPAD4 enzyme [1] = target: T1, hPAD4 enzyme (Homo sapiens (Human), UniProt Q9UM07); experiment: RFMS1 assay (RapidFire mass spectrometry, BAEE substrate); assay type: biochemical; conditions: 5 nM hPAD4, 250 μM BAEE, 30 min preincubation at 37° C., 90 min reaction; read-out: RFMS 1 IC50
Protocol: Compounds were solubilized in 100% DMSO to achieve a 10 mM compound concentration. Compound stock solutions were stored at RT. A series of dilutions were prepared in DMSO and mixed 8 times with 20 μL mixing volume. Final top concentration of compound in the assay is 50 μM. Final assay conditions were as follows: • Reaction volume: 26 μl • Assay buffer: 25 mM hepes, pH 7.5, 5 mM NaCl, 1 mM DTT, 0.2 mg/ml BSA, 0.01% CHAPS, 50 µM Calcium, and 5 μM TPEN • Final concentrations: 5 nM hPAD4 enzyme, 250 µM BAEE, and 0.5% DMSO • Total incubation time: 30 mins compound and enzyme preincubation at 37° C., 90 min enzyme/substrate reaction, 30 min reaction with phenyl glyoxal at 37° C. • Stop solution: 40 μl 5% TCA in ACN • 0.13 μL of compound solution was added to 13 μL of 10 nM PAD4 in assay buffer. After […] min 13 μl of 500 µM of BAEE was added in 25 mM hepes, pH 7.5, 5 mM NaCl, 1 mM DTT, 0.2 mg/ml BSA, 0.01% CHAPS, 50 μM Calcium, 5 μM TPEN was added and the reaction incubated for 90 min at 37° C. The enzymatic reaction was quenched by addition of 15 μl of 6.1N TCA, 100% Final Concentration is 20%, 35 μl of 8.5 mM phenyl glyoxal (final concentration 4 mM) is then added and the reaction is incubated for 30 min at 37° C.
After 30 minutes the plates are spun down to remove all precipitate. The enzyme reaction was quenched with an equal volume of methanol containing internal standard (modified citrulline). Samples were loaded onto the Rapid Fire RF300 system (Agilent) wherein they were first sipped for 1000 ms and then directly loaded to a C18 separations cartridge using a mixture of acetonitrile containing 0.01% formic acid for 3000 ms desalting. The flow rate of the mobile phase was 1.5 ml/min. Once the samples were eluted from the cartridge, a mobile phase of acetonitrile containing 0.01% formic acid was used to move the samples into the mass spectrometer for 4000 ms at a flow rate of 1.25 ml/min/Sciex API5500 triple quadrupole mass spectrometer (Applied Biosystems) equipped with ESI was used to analyze the peptidyl citrulline and internal standard ions.
MRM transition of product and internal standard were monitored at m/z 424.5 to 350.4 and m/z 293 to 247 respectively. The dwell time for each transition was set at 200 ms, and the ESI voltage was used at 5500 with a source temperature of 400° C. Extracted ion peaks for each transition were integrated using the Rapid Fire Integrator software. Peak area of analyte was normalized with internal standard.).
Compounds having an activity designated as “A” provided an IC50≤10 nM; compounds having an activity designated as “B” provided an IC50 11-100 nM; compounds having an activity designated as “C” provided an IC50 101-500 nM; compounds having an activity designated as “D” provided an IC50 501-1000 nM; compounds having an activity designated as “E” provided an IC50>1000 nM.

hPAD4 enzyme [2] = target: T1, hPAD4 enzyme; experiment: RFMS2 assay (RapidFire mass spectrometry, TSTGGRQGSHH peptide substrate); assay type: biochemical; conditions: 35 nM recombinant human PAD4, 500 μM TSTGGRQGSHH peptide, 30 minutes at room temperature; read-out: RFMS 2 IC50
How it was run: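 IC50 derived from RapidFire LC-MS/MS (positive ESI MRM) of substrate versus product after a 30 min room-temperature reaction stopped with 10% formic acid. Reaction contained 35 nM human PAD4, 500 μM peptide, 2 mM CaCl2, 5 mM DTT at pH 7.4, and compounds diluted 3-fold from 20 μM.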

T1 sequence (Q9UM07 whole entry): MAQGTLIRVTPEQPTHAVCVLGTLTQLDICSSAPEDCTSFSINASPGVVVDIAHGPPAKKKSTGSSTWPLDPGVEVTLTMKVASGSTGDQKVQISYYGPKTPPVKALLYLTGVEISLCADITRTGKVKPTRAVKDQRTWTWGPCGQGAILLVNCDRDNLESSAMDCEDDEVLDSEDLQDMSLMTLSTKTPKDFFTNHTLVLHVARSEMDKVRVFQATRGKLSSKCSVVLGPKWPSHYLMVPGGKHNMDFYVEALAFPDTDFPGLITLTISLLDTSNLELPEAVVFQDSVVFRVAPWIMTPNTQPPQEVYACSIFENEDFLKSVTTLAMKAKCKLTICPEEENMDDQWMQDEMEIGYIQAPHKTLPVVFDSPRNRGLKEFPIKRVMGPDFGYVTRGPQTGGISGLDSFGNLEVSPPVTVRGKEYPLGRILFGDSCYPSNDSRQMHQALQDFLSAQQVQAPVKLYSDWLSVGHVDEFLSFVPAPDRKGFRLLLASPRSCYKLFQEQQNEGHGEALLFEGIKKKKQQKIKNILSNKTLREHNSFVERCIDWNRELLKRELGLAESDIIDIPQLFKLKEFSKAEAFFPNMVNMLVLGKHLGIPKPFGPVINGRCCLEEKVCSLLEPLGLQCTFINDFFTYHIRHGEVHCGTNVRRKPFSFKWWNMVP

| IC50 (hPAD4 enzyme [1]) | IC50 (hPAD4 enzyme [2]) | SMILES |
| --- | --- | --- |
| 101 to 500 nM | 501 to 1000 nM | COc1cccc2cc(-c3nc4cc5c(cc4n3C)CCN(C[C@H](N)C(C)F)C5=O)n(CC3CC3)c12 (stereo partly drawn) [Example 15b, 6-((2S,3R)-2-amino-3-fluorobutyl)-2-(1-(cyclopropylmethyl)-7-methoxy-1H-indol-2-yl)-1-methyl-1,6,7,8-tetrahydro-5H-imidazo[4,5-g]isoquinolin-5-one] |
| 11 to 100 nM | 11 to 100 nM | COc1cccc2cc(-c3nc4cc5c(cc4n3C)CCN(C[C@@H](C)N)C5=O)n(CC3CC3)c12 [Example 35, (R)-6-(2-aminopropyl)-2-(1-(cyclopropylmethyl)-7-methoxy-1H-indol-2-yl)-1-methyl-1,6,7,8-tetrahydro-5H-imidazo[4,5-g]isoquinolin-5-one] |
| ≤ 10 nM | 101 to 500 nM | C[C@H](COc1cccc2cc(-c3nc4cc5c(cc4n3C)CCN(C[C@H](N)CF)C5=O)n(CC3CC3)c12)n1ccnc1 [Example 213, 2-(7-((R)-2-(1H-imidazol-1-yl)propoxy)-1-(cyclopropylmethyl)-1H-indol-2-yl)-6-((S)-2-amino-3-fluoropropyl)-1-methyl-1,6,7,8-tetrahydro-5H-imidazo[4,5-g]isoquinolin-5-one] |
| 501 to 1000 nM | > 1000 nM | Cn1c(-c2cc3ccccc3n2CC2CC2)nc2cc3c(cc21)CCN(C[C@H](N)C(F)F)C3=O [Example 14, (S)-6-(2-amino-3,3-difluoropropyl)-2-(1-(cyclopropylmethyl)-1H-indol-2-yl)-1-methyl-1,6,7,8-tetrahydro-5H-imidazo[4,5-g]isoquinolin-5-one] |
| 11 to 100 nM | 101 to 500 nM | COc1cccc2cc(-c3nc4cc5c(cc4n3C)CCN(C[C@H](N)CF)C5=O)n(CC3CC3)c12 [Example 53, (S)-6-(2-amino-3-fluoropropyl)-2-(1-(cyclopropylmethyl)-7-methoxy-1H-indol-2-yl)-1-methyl-1,6,7,8-tetrahydro-5H-imidazo[4,5-g]isoquinolin-5-one] |
| ≤ 10 nM | 11 to 100 nM | Cn1c(-c2cc3cccc(OCCc4ccno4)c3n2CC2CC2)nc2cc3c(cc21)CCN(C[C@H](N)CF)C3=O [Example 195, (S)-6-(2-amino-3-fluoropropyl)-2-(1-(cyclopropylmethyl)-7-(2-(isoxazol-5-yl)ethoxy)-1H-indol-2-yl)-1-methyl-1,6,7,8-tetrahydro-5H-imidazo[4,5-g]isoquinolin-5-one] |
| > 1000 nM | > 1000 nM | Cn1c(-c2cc3ccccc3n2CC2CC2)nc2cc3c(cc21)CCN(CC(C)(C)N)C3=O [Example 6, 6-(2-amino-2-methyl-propyl)-2-[1-(cyclopropylmethyl)indol-2-yl]-1-methyl-7,8-dihydroimidazo[4,5-g]isoquinolin-5-one] |
| 11 to 100 nM | 101 to 500 nM | CN1CC(COc2cccc3cc(-c4nc5cc6c(cc5n4C)CCN(C[C@H](N)CF)C6=O)n(CC4CC4)c23)CC1=O (stereo partly drawn) [Example 184, 6-((S)-2-amino-3-fluoropropyl)-2-(1-(cyclopropylmethyl)-7-((1-methyl-5-oxopyrrolidin-3-yl)methoxy)-1H-indol-2-yl)-1-methyl-1,6,7,8-tetrahydro-5H-imidazo[4,5-g]isoquinolin-5-one] |
| ≤ 10 nM | 101 to 500 nM | Cn1c(-c2cc3cccc(CCCn4ccnc4)c3n2CC2CC2)nc2cc3c(cc21)CCN(C[C@H](N)CF)C3=O [Example 228, (S)-2-(7-(3-(1H-imidazol-1-yl)propyl)-1-(cyclopropylmethyl)-1H-indol-2-yl)-6-(2-amino-3-fluoropropyl)-1-methyl-1,6,7,8-tetrahydro-5H-imidazo[4,5-g]isoquinolin-5-one] |
| 11 to 100 nM | 101 to 500 nM | COC(=O)N[C@@H](C)COc1cccc2cc(-c3nc4cc5c(cc4n3C)CCN(C[C@H](N)CF)C5=O)n(CC3CC3)c12 [Example 208, methyl ((S)-1-((2-(6-((S)-2-amino-3-fluoropropyl)-1-methyl-5-oxo-5,6,7,8-tetrahydro-1H-imidazo[4,5-g]isoquinolin-2-yl)-1-(cyclopropylmethyl)-1H-indol-7-yl)oxy)propan-2-yl)carbamate] |
| 11 to 100 nM | 101 to 500 nM | COc1cccc2cc(-c3nc4cc5c(cc4n3C)CCN(C[C@H](N)CF)C5=O)n(Cc3cc(N)no3)c12 [Example 146, (S)-6-(2-amino-3-fluoropropyl)-2-(1-((3-aminoisoxazol-5-yl)methyl)-7-methoxy-1H-indol-2-yl)-1-methyl-1,6,7,8-tetrahydro-5H-imidazo[4,5-g]isoquinolin-5-one] |
| 101 to 500 nM | 501 to 1000 nM | Cn1c(-c2cc3ccccc3n2CC2CC2)nc2cc3c(cc21)CCN(C[C@H]1COCCN1)C3=O [Example 13, (S)-2-(1-(cyclopropylmethyl)-1H-indol-2-yl)-1-methyl-6-(morpholin-3-ylmethyl)-1,6,7,8-tetrahydro-5H-imidazo[4,5-g]isoquinolin-5-one] |
| 101 to 500 nM | 101 to 500 nM | COc1cccc2cc(-c3nc4cc5c(cc4n3C)CCN(C[C@H](N)CF)C5=O)n(Cc3nccs3)c12 [Example 127, (S)-6-(2-amino-3-fluoropropyl)-2-(7-methoxy-1-(thiazol-2-ylmethyl)-1H-indol-2-yl)-1-methyl-1,6,7,8-tetrahydro-5H-imidazo[4,5-g]isoquinolin-5-one] |
| > 1000 nM | > 1000 nM | CC(C)[C@@H](N)CN1CCc2cc3c(cc2C1=O)nc(-c1cc2ccccc2n1CC1CC1)n3C [Example 11, (R)-6-(2-amino-3-methylbutyl)-2-(1-(cyclopropylmethyl)-1H-indol-2-yl)-1-methyl-1,6,7,8-tetrahydro-5H-imidazo[4,5-g]isoquinolin-5-one] |
| 101 to 500 nM | 501 to 1000 nM | Cn1c(-c2cc3ccccc3n2CC2CC2)nc2cc3c(c(F)c21)CCN(C[C@H](N)CF)C3=O [Example 236, (S)-6-(2-amino-3-fluoropropyl)-2-(1-(cyclopropylmethyl)-1H-indol-2-yl)-9-fluoro-1-methyl-1,6,7,8-tetrahydro-5H-imidazo[4,5-g]isoquinolin-5-one] |
| 101 to 500 nM | 101 to 500 nM | Cc1cccc2cc(-c3nc4cc5c(cc4n3C)CCN(C[C@H](N)CF)C5=O)n(CC3CC3)c12 [Example 48, (S)-6-(2-amino-3-fluoropropyl)-2-(1-(cyclopropylmethyl)-7-methyl-1H-indol-2-yl)-1-methyl-1,6,7,8-tetrahydro-5H-imidazo[4,5-g]isoquinolin-5-one] |

| SMILES | IC50 (hPAD4 enzyme [1]) | IC50 (hPAD4 enzyme [2]) |
| --- | --- | --- |
| COc1cccc2cc(-c3nc4cc5c(cc4n3C)CCN(C[C@H](N)[C@H](C)F)C5=O)n(CC3CC3)c12 [Example 15a, 6-((2S,3S)-2-amino-3-fluorobutyl)-2-(1-(cyclopropylmethyl)-7-methoxy-1H-indol-2-yl)-1-methyl-1,6,7,8-tetrahydro-5H-imidazo[4,5-g]isoquinolin-5-one] | 101 to 500 nM | 101 to 500 nM |
| COC1CCN(c2ccc3cc(-c4nc5cc6c(cc5n4C)CCN(C[C@H](N)CF)C6=O)n(CC4CC4)c3c2)CC1 [Example 68, (S)-6-(2-amino-3-fluoropropyl)-2-(1-(cyclopropylmethyl)-6-(4-methoxypiperidin-1-yl)-1H-indol-2-yl)-1-methyl-1,6,7,8-tetrahydro-5H-imidazo[4,5-g]isoquinolin-5-one] | 11 to 100 nM | > 1000 nM |
| COc1cc(F)cc2cc(-c3nc4cc5c(cc4n3C)CCN(C[C@H](N)CF)C5=O)n(CC3CC3)c12 [Example 65, (S)-6-(2-amino-3-fluoropropyl)-2-(1-(cyclopropylmethyl)-5-fluoro-7-methoxy-1H-indol-2-yl)-1-methyl-1,6,7,8-tetrahydro-5H-imidazo[4,5-g]isoquinolin-5-one] | 11 to 100 nM | 101 to 500 nM |
